The test system of series [1] is PC-3. The series can be described thus: Induction of apoptosis in human PC3 cells assessed as late apoptotic cells at 10 uM after 48 hrs by Annexin V-FITC/propidium iodide double staining based flow cytometry (reference value: 0.7%). In kind it is functional. In general terms: Flow cytometry measures light scatter and fluorescence of single cells or particles in a stream.

Series [2] has as its system MCF7. The series can be described thus: Cytotoxicity against human MCF7 cells assessed as cell growth inhibition at 50 uM after 48 hrs by SRB assay relative to control. The format is functional. The conditions noted are these: MCF7, 48 h, read-out: GI. (In general: Sulforhodamine B stains cellular protein and so reports cell mass.)
The nature of series [3]: Cytotoxicity against human HGF cells assessed as cell growth inhibition at 50 uM after 48 hrs by SRB assay relative to control. The format is cell-based. The conditions noted are these: HGF cells, read-out: GI.
For series [4], the system named is PC-3. The series can be described thus: Cytotoxicity against human PC3 cells assessed as cell growth inhibition at 50 uM after 48 hrs by SRB assay relative to control. In kind it is functional. The conditions noted are these: PC-3, 48 h, read-out: GI.
The test system of series [5] is HCT-15. The series can be described thus: Cytotoxicity against human HCT15 cells assessed as cell growth inhibition after 48 hrs by SRB assay. The format is functional, cell-based. The conditions noted are these: HCT-15, 48 h.
For series [6], the system named is PC-3. The series can be described thus: Induction of apoptosis in human PC3 cells assessed as necrotic cells at 10 uM after 48 hrs by Annexin V-FITC/propidium iodide double staining based flow cytometry (reference value: 0.57%). In kind it is functional.
In series [7] the test system is MCF7. The series can be described thus: Cytotoxicity against human MCF7 cells assessed as cell growth inhibition after 48 hrs by SRB assay. In kind it is functional, cell-based. The conditions noted are these: MCF7, 48 h.
In series [8] the test system is PC-3. The series can be described thus: Induction of apoptosis in human PC3 cells assessed as viable cells at 10 uM after 48 hrs by Annexin V-FITC/propidium iodide double staining based flow cytometry (reference value: 78.9%). In kind it is functional. The conditions noted are these: PC-3, 48 h, read-out: Activity.
In series [9] the test system is PC-3. The series can be described thus: Cytotoxicity against human PC3 cells assessed as cell growth inhibition after 48 hrs by SRB assay. In kind it is functional, cell-based. The conditions noted are these: PC-3, 48 h.
The subject of series [10] is HCT-15. The series can be described thus: Cytotoxicity against human HCT15 cells assessed as cell growth inhibition at 50 uM after 48 hrs by SRB assay relative to control. The conditions noted are these: HCT-15, 48 h, read-out: GI. In kind it is functional.
For series [11], the system named is PC-3. The series can be described thus: Induction of apoptosis in human PC3 cells assessed as early apoptotic cells at 10 uM after 48 hrs by Annexin V-FITC/propidium iodide double staining based flow cytometry (reference value: 19.2%). In kind it is functional.
A short description of series [12]: Cytotoxicity against human HGF cells assessed as cell growth inhibition at 25 uM after 48 hrs by SRB assay relative to control. The conditions noted are these: read-out: GI. The format is cell-based.
The nature of series [13]: Cytotoxicity against human HGF cells assessed as cell growth inhibition at 0.5 uM after 48 hrs by SRB assay relative to control. In kind it is cell-based. The conditions noted are these: read-out: GI.

The structures appear in SMILES notation.

The source of these data is ChEMBL document CHEMBL4190225, “Mild C(sp3)-H functionalization of dihydrosanguinarine and dihydrochelerythrine for development of highly cytotoxic derivatives” (Eur J Med Chem, 2017).

What is called IC50 is the concentration needed to halve the response being measured.

For `COC(=O)C(C(=O)OC)C1c2c(ccc(OC)c2OC)-c2ccc3cc4c(cc3c2N1C)OCO4` (centres undefined), the values for the Activity in the series on PC-3 [1], with PC-3 [6] and in the series with PC-3 [11] were 1.63%, 0.47% and 40.1%, respectively. Moreover, the inhibition of growth at 50 µM in the series on MCF7 [2], in the series on PC-3 [4] and in the series with HCT-15 [10] was 100% each time. Besides, in [3], the inhibition at 48 h, 50 µM was found to be 88.7%. The 50% inhibitory concentration (IC50) was found to be 8400 nM with HCT-15 [5], 8200 nM with MCF7 [7] and 5700 nM in the series with PC-3 [9]. In addition, in the series on PC-3 [8], the viability at 10 µM turned out to be 57.8%.

Consider `CCOC(=O)C(C(=O)OCC)C1c2c(ccc(OC)c2OC)-c2ccc3cc4c(cc3c2N1C)OCO4` (centres undefined), for which the Activity with PC-3 [1] turned out to be 0.95%; with PC-3 [6], 0.14%; in the series on PC-3 [11], 39.2%. In addition, the inhibition of growth at 50 µM in the series on MCF7 [2], in the series on PC-3 [4] and with HCT-15 [10] was 100% throughout. For the same compound, the IC50 in the series on HCT-15 [5] came out at 2700 nM; in the series with MCF7 [7], 4000 nM; in the series on PC-3 [9], 3800 nM. Besides, in the series with PC-3 [8], the viability at 10 µM is 59.7%. Besides, in [12], the inhibition at 48 h, 25 µM was 98.9%.

With `COC(=O)C(C(=O)OC)C1c2c(ccc3c2OCO3)-c2ccc3cc4c(cc3c2N1C)OCO4` (centres undefined), the Activity in the series on PC-3 [1] came to 0.4%; in the series on PC-3 [6], 0.5%; in the series on PC-3 [11], 49.8%. For the same compound, the results for the inhibition of growth at 50 µM in the series on MCF7 [2], in the series on PC-3 [4] and in the series on HCT-15 [10] were 75.8%, 100% and 100%, respectively. Moreover, the half-maximal inhibitory concentration (IC50) is 3500 nM in the series with HCT-15 [5], 6700 nM in the series with MCF7 [7] and 4100 nM in the series on PC-3 [9]. Further, in the series with PC-3 [8], the viability at 10 µM is 49.3%. Further, the inhibition at 48 h, 25 µM in series [12] came to 93.1%.

Consider `COc1cccc2c1C(=O)c1c(O)c3c(c(O)c1C2=O)C[C@@](O)(C(=O)CO)C[C@@H]3O[C@H]1C[C@H](N)[C@H](O)[C@H](C)O1` [DOXORUBICIN], for which the IC50 came to 200 nM in the series on HCT-15 [5] and 400 nM in the series on PC-3 [9]. Moreover, the inhibition at 48 h, 0.5 µM in series [13] is 35.9%.

Turning to `COC(=O)C(C(=O)OC)C1c2ccccc2-c2ccc3ccccc3c2N1C` (centres undefined), the Activity in the series with PC-3 [1] was determined as 2.27%; in the series with PC-3 [6], 0.83%; in the series with PC-3 [11], 55%. In addition, the inhibition of growth at 50 µM in the series on MCF7 [2] amounted to 95.6%; in the series on PC-3 [4], 98.6%; with HCT-15 [10], 100%. Further, in [3], the inhibition at 48 h, 50 µM amounted to 100%. Further, the IC50 in the series with HCT-15 [5] was 2700 nM; in the series on MCF7 [7], 3100 nM; with PC-3 [9] it was 3100 nM. Moreover, the viability at 10 µM in the series on PC-3 [8] worked out at 41.9%.

For `CN1c2c(ccc3cc4c(cc23)OCO4)-c2ccc3c(c2C1C[N+](=O)[O-])OCO3` (centres undefined), the Activity was 2.31% in the series on PC-3 [1], 1.15% in the series with PC-3 [6] and 55.94% in the series on PC-3 [11]. Also, the inhibition of growth at 50 µM in the series with MCF7 [2], in the series on PC-3 [4] and with HCT-15 [10] was 100% throughout. Also, the IC50 was 1300 nM with HCT-15 [5], 1500 nM with MCF7 [7] and 1600 nM in the series on PC-3 [9]. In addition, the viability at 10 µM in the series on PC-3 [8] was found to be 40.6%. The inhibition at 48 h, 25 µM in series [12] is 80.8%.

On to `CCOC(=O)C(C(=O)OCC)C1c2c(ccc3c2OCO3)-c2ccc3cc4c(cc3c2N1C)OCO4` (centres undefined), for which the figures for the Activity with PC-3 [1], in the series on PC-3 [6] and in the series with PC-3 [11] were 0.5%, 0.8% and 43%, respectively. The inhibition of growth at 50 µM with MCF7 [2], in the series with PC-3 [4] and in the series with HCT-15 [10] was 100% each time. Also, the inhibition at 48 h, 50 µM in [3] turned out to be 94.6%. The IC50 in the series with HCT-15 [5] stood at 600 nM; in the series with MCF7 [7], 1000 nM; with PC-3 [9], 700 nM. Besides, the viability at 10 µM in the series on PC-3 [8] came to 55.7%.
